ChEMBL document CHEMBL1201862, “PubChem BioAssay data set” (2004)
Active and inactive are the calls of the source.

Tests used:
H4 = experiment: Luminescence Cell-Based Dose Response HTS to Identify Activators of 5'UTR Stem-Loop Driven Prion Protein mRNA Translation in H4 Neuroglioblastoma Cells. [Related pubchem assays: 1829 (Project Summary), 1814 (Primary HTS)]; assay type: functional; details: Homo sapiens
[1] = biological target: T1, Oxysterols receptor LXR-beta (Homo sapiens, UniProt P55055); assay type: functional, cell-based;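 further: Cell-based luminescence dose-response assay of agonist activity at LXR, run as a confirmatory counterscreen to a daf-12 agonist screen; HEK293 cells with Gal4-LXR fusion and GAL4-driven luciferase reporter; agonist potency from rising luciferase signal of a Gal4-LXR reporter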
T1 sequence (P55055 whole entry): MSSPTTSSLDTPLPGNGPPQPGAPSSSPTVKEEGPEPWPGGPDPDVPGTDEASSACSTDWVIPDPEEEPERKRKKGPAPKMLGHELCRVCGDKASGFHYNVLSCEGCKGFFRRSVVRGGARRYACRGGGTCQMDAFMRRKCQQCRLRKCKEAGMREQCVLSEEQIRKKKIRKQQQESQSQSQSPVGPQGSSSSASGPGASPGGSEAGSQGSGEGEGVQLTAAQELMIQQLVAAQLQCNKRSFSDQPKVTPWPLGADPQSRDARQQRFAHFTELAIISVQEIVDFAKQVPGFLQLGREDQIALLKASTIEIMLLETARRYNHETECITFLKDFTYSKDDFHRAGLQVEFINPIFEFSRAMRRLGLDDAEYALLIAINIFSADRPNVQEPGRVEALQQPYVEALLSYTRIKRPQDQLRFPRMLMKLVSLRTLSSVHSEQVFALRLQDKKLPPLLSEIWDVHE

[2] = P. falciparum Dd2 growth inhibitors, dose response, SYBR Green, dry powder samples, set 9 (AID 1159568); assay type: functional, cell-based
[3] = biological target: G-protein coupled receptor 183 (Homo sapiens, UniProt P32249); experiment: SAR confirmation of small molecule antagonists of the EBI2 receptor via a luminescent beta-arrestin assa.; assay type: functional
Phospholipase D2 = Phospholipase D2 (Homo sapiens, UniProt O14939); experiment: PLD2 Cellular Concentration Response Study.; assay type: functional
Phospholipase D1 = Phospholipase D1 (Homo sapiens, UniProt Q13393); experiment: PLD1 Cellular Concentration Response Study.; assay type: functional
[4] = biological target: Peroxisome proliferator-activated receptor gamma/Nuclear receptor coactivator 1 (Homo sapiens, UniProt P37231); experiment: (§1) TR-FRET dose response biochemical High Throughput Screening assay for agonists of the steroid receptor coactivator 1 (SRC-1) recruitment by the peroxisome proliferator-activated receptor gamma (PPAR gamma): non-selective agonists. [Related pubchem assays (depositor defined):AID1300, AID1808, AID504735, AID631]; assay type: protein assay
[5] = biological target: Peroxisome proliferator-activated receptor gamma/Nuclear receptor coactivator 3 (Homo sapiens, UniProt P37231); experiment: as §1, with “3 (SRC-3)” for “1 (SRC-1)”, “assays: 1301 (Confirmation screen.), 1048 (Primary screen.)]” for “assays (depositor defined):AID1300, AID1808, AID504735, AID631]”; assay type: functional
[6] = biological target: Peroxisome proliferator-activated receptor gamma/Nuclear receptor coactivator 2 (Homo sapiens, UniProt P37231); experiment: TR-FRET dose response biochemical High Throughput Screening assay for agonists of the steroid receptor coactivator 2 (SRC-2) recruitment by the peroxisome proliferator-activated receptor gamma (PPAR gamma): non-selective agonists. [Related pubchem assays: 1297, 1032 ]; assay type: functional
Nonstructural protein 1 = Nonstructural protein 1 (Influenza A virus, UniProt Q194T2); assay type: functional, Influenza A virus (A/California/07/2009(H1N1))
[7] = biological target: T2, Heat shock factor protein 1 (Mus musculus, UniProt P38532); experiment: HSF1 potentiators in luciferase reporter cells, confirmation, cell-based, NIH3T3, luminescence, dose retest (AID 435004); assay type: functional;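 further: stress induced by proteasome inhibitor MG132 added 30 min after compound; luciferase reporter driven by HSF1 response element in NIH3T3 cells; actives raise luminescence as potentiators of the MG132 stress response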
T2 sequence (P38532 whole entry): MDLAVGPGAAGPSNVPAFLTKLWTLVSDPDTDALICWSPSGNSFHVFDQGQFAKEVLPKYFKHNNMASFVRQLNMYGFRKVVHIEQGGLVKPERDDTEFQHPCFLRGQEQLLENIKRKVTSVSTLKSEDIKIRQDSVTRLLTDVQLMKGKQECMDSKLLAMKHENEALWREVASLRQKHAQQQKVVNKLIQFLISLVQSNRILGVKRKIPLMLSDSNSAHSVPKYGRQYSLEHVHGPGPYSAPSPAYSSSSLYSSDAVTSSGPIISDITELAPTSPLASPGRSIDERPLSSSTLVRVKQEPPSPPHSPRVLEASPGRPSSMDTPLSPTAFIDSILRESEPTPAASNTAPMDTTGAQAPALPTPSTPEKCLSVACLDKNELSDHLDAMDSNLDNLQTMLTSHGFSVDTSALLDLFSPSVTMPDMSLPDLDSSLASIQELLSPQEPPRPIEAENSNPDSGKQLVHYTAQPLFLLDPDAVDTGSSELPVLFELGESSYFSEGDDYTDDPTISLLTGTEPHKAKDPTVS

[8] = biological target: SWI/SNF-related matrix-associated actin-dependent regulator of chromatin subfamily A member 2 (Homo sapiens, UniProt P51531); experiment: Luminescence-based cell-based high throughput dose response assay to identify activators of the function of SWI/SNF related, matrix associated, actin dependent regulator of chromatin, subfamily a, member 2 (SMARCA2, BRM).; assay type: functional
[9] = Counterscreen for activators of the function of SWI/SNF related, matrix associated, actin dependent regulator of chromatin, subfamily a, member 2 (SMARCA2, BRM): Luminescence-based cell-based high throughput dose response assay to identify non-selective compounds using the VP16 reporter assay.; assay type: functional
Fibrinogen beta chain [10] = biological target: T3, Fibrinogen beta chain (Homo sapiens, UniProt P02675); experiment: Fluorescence polarization-based biochemical high throughput dose response assay to identify inhibitors that disrupt the binding of a cyclic peptide (Tn6) to the fibrin proteolytic product D-Dimer and fragment E complex [DD(E )].
Fibrinogen beta chain [11] = biological target: T3, Fibrinogen beta chain; experiment: Fluorescence polarization-based biochemical high throughput dose response assay to identify inhibitors that disrupt the binding of a cyclic peptide (Tn7) to the fibrin proteolytic product D-Dimer and fragment E complex [DD(E )].
[12] = Concentration-dependent survival of SW480 colon cancer line, luminescence detection with CellTiter-Glo, half-maximal inhibitory concentration (AID 1117338); assay type: functional
[13] = RKO cell viability reduction, dose response, CellTiter-Glo luminescence (AID 1117322); assay type: functional
[14] = cytotoxicity toward HCT116 cells – cell-based, CellTiter-Glo luminescence, IC50, dose response (AID 1117332); assay type: functional; details: HCT-116
[15] = SNU-C1 cell viability reduction, dose response, CellTiter-Glo luminescence (AID 1117323); assay type: functional, cell-based
[16] = cytotoxicity toward Colo320 cells – cell-based, CellTiter-Glo luminescence, IC50, dose response (AID 1117334); assay type: functional; details: COLO 320
[17] = cytotoxicity toward HT-29 cells – cell-based, CellTiter-Glo luminescence, IC50, dose response (AID 1117330); assay type: functional
[18] = CellTiter-Glo luminescent dose response of DLD-1 viability loss (AID 1117352); assay type: functional
[19] = HCT116 cell viability decrease, GSK3B pretreatment – CellTiter-Glo, IC50, dose response (AID 1117339); assay type: functional; details: HCT-116
[20] = HeLa 2N DNA content increase, dose response, cell-based, IC50 (AID 1117349); assay type: functional
[21] = HeLa 4N DNA content increase, dose response, cell-based, IC50 (AID 1117351); assay type: functional

T3 sequence (P02675 whole entry, the tested form may be a part): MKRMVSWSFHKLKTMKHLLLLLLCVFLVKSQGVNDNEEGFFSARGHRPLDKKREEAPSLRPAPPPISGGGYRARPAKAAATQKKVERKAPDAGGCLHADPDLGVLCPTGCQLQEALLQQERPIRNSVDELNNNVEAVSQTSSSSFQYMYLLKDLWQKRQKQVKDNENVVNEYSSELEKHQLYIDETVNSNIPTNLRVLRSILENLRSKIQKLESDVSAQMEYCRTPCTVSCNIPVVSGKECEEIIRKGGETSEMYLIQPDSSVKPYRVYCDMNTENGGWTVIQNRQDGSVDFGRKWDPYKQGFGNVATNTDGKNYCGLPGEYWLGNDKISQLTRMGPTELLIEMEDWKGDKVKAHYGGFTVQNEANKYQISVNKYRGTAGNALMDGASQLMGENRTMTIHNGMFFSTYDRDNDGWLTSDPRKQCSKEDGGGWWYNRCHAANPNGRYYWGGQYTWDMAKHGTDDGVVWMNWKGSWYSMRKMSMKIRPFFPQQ
Chain of Nonstructural protein 1 (Q194T2 whole entry): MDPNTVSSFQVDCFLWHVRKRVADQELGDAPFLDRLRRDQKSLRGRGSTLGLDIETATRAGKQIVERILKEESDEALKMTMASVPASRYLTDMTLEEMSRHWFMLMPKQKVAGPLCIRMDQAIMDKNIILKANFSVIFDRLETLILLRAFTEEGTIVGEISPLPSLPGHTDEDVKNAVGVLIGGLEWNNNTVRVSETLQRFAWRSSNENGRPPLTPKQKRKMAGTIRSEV
Chain of Phospholipase D2 (O14939 whole entry): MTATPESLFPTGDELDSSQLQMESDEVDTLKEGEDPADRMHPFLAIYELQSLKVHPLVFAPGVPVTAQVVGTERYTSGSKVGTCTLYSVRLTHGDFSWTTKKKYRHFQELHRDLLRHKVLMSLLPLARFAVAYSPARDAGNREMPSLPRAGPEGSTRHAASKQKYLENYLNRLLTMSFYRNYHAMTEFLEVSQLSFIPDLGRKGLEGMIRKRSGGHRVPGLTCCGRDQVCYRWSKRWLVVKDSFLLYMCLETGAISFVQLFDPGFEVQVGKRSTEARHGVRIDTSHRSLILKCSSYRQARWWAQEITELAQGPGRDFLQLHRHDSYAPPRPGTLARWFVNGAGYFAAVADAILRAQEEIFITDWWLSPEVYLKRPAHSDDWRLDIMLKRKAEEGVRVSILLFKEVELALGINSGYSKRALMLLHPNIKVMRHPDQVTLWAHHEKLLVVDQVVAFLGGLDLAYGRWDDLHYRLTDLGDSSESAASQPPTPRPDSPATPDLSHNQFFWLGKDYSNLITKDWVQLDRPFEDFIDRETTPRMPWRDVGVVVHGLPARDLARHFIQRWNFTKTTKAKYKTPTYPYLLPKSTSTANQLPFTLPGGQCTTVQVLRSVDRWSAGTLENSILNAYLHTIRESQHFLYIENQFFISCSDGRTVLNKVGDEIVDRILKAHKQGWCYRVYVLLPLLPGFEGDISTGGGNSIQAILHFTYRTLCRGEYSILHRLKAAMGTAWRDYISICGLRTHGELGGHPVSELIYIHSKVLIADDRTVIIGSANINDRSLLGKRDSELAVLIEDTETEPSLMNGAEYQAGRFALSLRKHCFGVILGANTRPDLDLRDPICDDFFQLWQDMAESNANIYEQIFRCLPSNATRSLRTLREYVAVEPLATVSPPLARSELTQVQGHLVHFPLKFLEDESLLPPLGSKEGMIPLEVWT
Chain of SWI/SNF-related matrix-associated actin-dependent regulator of chromatin subfamily A member 2 (P51531 whole entry): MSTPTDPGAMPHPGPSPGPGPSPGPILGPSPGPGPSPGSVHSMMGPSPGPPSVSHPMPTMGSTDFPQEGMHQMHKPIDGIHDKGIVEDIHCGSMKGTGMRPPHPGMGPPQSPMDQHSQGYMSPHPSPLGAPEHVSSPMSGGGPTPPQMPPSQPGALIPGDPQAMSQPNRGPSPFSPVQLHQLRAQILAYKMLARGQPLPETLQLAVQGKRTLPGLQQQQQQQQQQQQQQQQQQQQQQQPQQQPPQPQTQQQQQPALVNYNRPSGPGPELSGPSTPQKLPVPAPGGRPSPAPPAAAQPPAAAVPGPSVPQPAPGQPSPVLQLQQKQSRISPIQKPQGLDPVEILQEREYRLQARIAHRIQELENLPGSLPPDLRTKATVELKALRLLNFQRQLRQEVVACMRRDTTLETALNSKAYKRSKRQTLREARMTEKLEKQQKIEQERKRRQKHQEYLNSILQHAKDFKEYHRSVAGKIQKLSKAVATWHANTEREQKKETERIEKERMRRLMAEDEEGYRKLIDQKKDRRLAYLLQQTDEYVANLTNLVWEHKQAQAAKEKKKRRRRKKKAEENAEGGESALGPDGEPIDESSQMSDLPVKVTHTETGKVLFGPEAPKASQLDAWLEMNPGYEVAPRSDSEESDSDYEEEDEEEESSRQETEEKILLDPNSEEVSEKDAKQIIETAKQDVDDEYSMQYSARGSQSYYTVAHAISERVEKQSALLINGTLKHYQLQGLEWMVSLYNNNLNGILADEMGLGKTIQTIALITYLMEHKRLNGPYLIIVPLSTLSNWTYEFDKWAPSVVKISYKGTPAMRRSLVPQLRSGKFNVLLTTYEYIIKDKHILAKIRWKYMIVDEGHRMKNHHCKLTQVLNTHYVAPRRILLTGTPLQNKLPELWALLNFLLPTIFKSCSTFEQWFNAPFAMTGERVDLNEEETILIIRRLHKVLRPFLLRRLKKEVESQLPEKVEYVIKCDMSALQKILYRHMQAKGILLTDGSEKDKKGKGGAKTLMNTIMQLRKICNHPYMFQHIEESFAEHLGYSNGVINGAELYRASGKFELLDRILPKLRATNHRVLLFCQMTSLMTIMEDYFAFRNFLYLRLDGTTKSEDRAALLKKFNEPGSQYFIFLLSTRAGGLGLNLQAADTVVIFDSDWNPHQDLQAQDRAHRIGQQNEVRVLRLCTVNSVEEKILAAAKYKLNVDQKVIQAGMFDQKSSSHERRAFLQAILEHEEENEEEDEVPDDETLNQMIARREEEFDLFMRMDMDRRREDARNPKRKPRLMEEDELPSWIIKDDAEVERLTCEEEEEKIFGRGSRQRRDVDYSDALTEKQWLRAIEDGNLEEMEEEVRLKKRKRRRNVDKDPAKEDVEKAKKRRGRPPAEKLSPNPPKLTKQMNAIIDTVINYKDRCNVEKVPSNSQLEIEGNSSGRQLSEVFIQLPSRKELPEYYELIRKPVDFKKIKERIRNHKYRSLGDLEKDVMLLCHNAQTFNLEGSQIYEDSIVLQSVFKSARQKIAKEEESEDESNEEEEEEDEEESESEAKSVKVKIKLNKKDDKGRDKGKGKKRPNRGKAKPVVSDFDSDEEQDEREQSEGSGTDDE
Chain of Phospholipase D1 (Q13393 whole entry): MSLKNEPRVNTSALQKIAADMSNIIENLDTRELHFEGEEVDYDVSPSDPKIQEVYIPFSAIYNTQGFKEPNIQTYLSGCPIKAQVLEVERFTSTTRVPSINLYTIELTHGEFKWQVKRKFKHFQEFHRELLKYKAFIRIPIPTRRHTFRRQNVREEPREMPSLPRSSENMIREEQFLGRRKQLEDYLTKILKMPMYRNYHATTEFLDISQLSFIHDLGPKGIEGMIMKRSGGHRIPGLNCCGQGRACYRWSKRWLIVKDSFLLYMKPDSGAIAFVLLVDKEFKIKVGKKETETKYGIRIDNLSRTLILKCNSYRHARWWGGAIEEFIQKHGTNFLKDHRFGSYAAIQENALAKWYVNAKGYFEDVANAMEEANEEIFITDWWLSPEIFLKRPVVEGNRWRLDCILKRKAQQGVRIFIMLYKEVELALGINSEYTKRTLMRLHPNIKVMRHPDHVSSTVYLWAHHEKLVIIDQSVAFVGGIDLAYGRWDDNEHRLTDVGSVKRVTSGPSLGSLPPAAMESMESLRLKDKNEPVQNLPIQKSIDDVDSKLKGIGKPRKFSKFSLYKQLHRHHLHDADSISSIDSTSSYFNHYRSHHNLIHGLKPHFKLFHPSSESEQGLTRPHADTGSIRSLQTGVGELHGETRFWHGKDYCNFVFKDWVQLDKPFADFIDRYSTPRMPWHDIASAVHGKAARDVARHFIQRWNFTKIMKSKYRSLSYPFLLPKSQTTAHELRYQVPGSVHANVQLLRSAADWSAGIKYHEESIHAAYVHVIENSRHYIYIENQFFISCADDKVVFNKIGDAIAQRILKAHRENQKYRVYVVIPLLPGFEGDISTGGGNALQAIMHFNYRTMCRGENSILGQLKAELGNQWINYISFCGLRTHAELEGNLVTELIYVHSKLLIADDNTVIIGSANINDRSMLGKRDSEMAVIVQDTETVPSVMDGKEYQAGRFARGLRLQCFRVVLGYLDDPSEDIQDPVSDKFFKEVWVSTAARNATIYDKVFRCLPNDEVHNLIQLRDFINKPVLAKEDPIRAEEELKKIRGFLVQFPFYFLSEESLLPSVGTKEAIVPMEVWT
Chain of G-protein coupled receptor 183 (P32249 whole entry): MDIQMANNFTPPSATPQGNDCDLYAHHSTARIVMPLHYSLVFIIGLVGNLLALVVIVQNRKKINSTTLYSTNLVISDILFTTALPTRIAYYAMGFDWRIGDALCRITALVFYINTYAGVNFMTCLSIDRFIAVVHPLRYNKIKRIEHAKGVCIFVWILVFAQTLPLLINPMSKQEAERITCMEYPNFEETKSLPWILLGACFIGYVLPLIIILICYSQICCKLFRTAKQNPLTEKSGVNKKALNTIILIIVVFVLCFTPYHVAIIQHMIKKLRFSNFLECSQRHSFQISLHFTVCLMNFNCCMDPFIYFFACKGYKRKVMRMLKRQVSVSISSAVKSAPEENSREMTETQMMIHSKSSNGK

Question: Which EC50 (H4) does the source give for `C/C(=N\Nc1nc2c(s1)CCCC2)c1ccccc1` here?
Answer: Its EC50 is 5.13 µM (active).

Question: What about the EC50 [1] of the same molecule?
Answer: The EC50 was > 67.5 µM (inactive).

Question: What about the EC50 (cells) of the same molecule?
Answer: The EC50 was > 67.5 µM (inactive).

Question: Which AC50 [2] does the source give for `C[C@H](CO)N1C[C@H](C)[C@@H](CN(C)S(=O)(=O)c2ccc(F)cc2)OCCCC[C@H](C)Oc2ccc(N(C)C)cc2C1=O` here?
Answer: Its AC50 is 5.9 µM (active).

Question: For `COc1ccc(S(=O)(=O)N2CCN(C(=O)/C=C/c3ccc(F)cc3)CC2)cc1`, which IC50 [3] is on record?
Answer: Its IC50 is 0.0121 µM (active).

Question: With `O=C(NCCN1CCC2(CC1)C(=O)NCN2C(=O)c1cccc(F)c1)c1ccc2ccccc2c1` as the molecule, how does the IC50 (Phospholipase D2) read?
Answer: Its IC50 is 2.75 µM (active).

Question: What about the IC50 (Phospholipase D1) of the same molecule?
Answer: Its IC50 is 8.76 µM (active).

Question: With `COc1ccc(N)c2c1C(=O)c1ccccc1C2=O` as the molecule, how does the EC50 [4] read?
Answer: Its EC50 is 20.2 µM (inactive).

Question: And the EC50 [5]?
Answer: Its EC50 is 119 µM (not active).

Question: What about the EC50 [6] of the same molecule?
Answer: Its EC50 is 10.7 µM (not active).

Question: And the IC50 (Nonstructural protein 1)?
Answer: The IC50 was 31 µM (active).

Question: What about the EC50 [7] of the same molecule?
Answer: Its EC50 is > 260 µM (inactive).

Question: What about the EC50 [8] of the same molecule?
Answer: Its EC50 is > 91.1 µM (inactive).

Question: What about the EC50 [9] of the same molecule?
Answer: Its EC50 is > 91.1 µM (inactive).

Question: What about the IC50 (Fibrinogen beta chain [10]) of the same molecule?
Answer: Its IC50 is 4.98 µM (active).

Question: What about the IC50 (Fibrinogen beta chain [11]) of the same molecule?
Answer: Its IC50 is > 83.2 µM (inactive).

Question: With `ClC1=C(Cl)C2(Cl)C(CBr)CC1(Cl)C2(Cl)Cl` (stereo unspecified) [BROMOCICLEN] as the molecule, how does the IC50 [12] read?
Answer: The IC50 was > 20 µM (inactive).

Question: What about the IC50 [13] of the same molecule?
Answer: The IC50 was > 20 µM (inactive).

Question: What about the IC50 [14] of the same molecule?
Answer: Its IC50 is > 20 µM (inactive).

Question: What about the IC50 [15] of the same molecule?
Answer: Its IC50 is > 20 µM (inactive).

Question: What about the IC50 [16] of the same molecule?
Answer: The IC50 was > 20 µM (inactive).

Question: And the IC50 [17]?
Answer: The IC50 was > 20 µM (inactive).

Question: What about the IC50 [18] of the same molecule?
Answer: Its IC50 is > 20 µM (inactive).

Question: And the IC50 [19]?
Answer: Its IC50 is > 20 µM (inactive).

Question: Which IC50 [20] does the source give for `C=C(C)[C@H]1Cc2c(ccc3c2O[C@@H]2COc4cc(OC)c(OC)cc4[C@@H]2C3=O)O1` [ROTENONE] here?
Answer: Its IC50 is 0.311 µM (active).

Question: And the IC50 [21]?
Answer: The IC50 was 0.311 µM (active).
